How the values were obtained:
[1] = test system: HT29 colon adenocarcinoma cells; assay: morphological changes (vacuoles), HT29; type: cell-based, human; conditions: treatment for 24 hours
Excerpt: (§1) These vacuoles are not formed in DMSO- or doxorubicin-treated cells. Moreover, the nuclear membrane is no longer evident in the phase-contrast images of cells treated with compound 45, even though the nucleus is still intact, as shown by DAPI staining.

HT-29 colon cancer cells = assay: growth suppression of HT-29 colon cancer cells; type: cell-based; conditions: Homo sapiens
Abl = molecular target: T1, Abl (Homo sapiens, UniProt P00519); assay: kinase profiler, Abl; type: biochemical; conditions: 10 μM compound, 100 μM ATP, mean of % control
T1 construct: purchased Upstate Biotechnologies (kinase profiler service)
T1 sequence (P00519 whole entry): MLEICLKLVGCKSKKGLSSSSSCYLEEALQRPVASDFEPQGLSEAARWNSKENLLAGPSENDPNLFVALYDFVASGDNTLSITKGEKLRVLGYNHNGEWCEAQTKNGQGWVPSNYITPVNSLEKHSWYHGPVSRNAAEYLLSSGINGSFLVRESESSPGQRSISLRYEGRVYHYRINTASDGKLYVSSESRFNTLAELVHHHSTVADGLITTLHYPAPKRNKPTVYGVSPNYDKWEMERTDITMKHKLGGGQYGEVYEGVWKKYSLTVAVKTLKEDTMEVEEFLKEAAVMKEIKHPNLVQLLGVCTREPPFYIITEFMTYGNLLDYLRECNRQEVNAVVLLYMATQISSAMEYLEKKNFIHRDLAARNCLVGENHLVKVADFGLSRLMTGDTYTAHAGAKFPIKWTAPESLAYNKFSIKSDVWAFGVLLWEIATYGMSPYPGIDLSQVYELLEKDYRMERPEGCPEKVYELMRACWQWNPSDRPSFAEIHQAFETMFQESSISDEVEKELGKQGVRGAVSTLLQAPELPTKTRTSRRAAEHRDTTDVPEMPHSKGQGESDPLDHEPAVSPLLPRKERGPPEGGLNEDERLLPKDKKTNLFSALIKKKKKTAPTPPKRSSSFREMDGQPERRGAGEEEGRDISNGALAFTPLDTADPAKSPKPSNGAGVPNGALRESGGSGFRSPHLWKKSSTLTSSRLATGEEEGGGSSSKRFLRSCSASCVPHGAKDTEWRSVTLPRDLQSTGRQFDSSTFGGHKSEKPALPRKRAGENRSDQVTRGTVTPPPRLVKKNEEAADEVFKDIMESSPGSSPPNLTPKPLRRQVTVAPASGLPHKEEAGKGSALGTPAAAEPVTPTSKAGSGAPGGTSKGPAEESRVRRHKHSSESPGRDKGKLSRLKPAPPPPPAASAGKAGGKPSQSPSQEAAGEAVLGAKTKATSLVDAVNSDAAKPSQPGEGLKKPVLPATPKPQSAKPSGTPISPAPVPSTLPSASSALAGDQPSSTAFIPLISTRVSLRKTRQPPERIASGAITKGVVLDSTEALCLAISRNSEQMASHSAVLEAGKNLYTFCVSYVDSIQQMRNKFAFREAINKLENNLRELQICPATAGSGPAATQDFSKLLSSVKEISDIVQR
Experimental: (§2) Compound 45 was tested for its ability to function as a kinase inhibitor using the kinase profiler service from Upstate Biotechnologies. The general protocol employed is as follows: recombinant kinases were incubated with specific substrates, 10 mM MgAcetate, and [γ-^33P-ATP]. The reaction was initiated by the addition of MgATP mix. After incubation at room temperature for 40 minutes, the reaction was stopped by the addition of 5 μl of a 3% phosphoric acid solution. 10 μl of the reaction was then spotted on to a P30 filtermat and washed 3 times for 5 min. in 75 mM phosphoric acid and once in methanol prior to drying and scintillation counting. Each reaction was performed in duplicate with 100 μM ATP −/+10 μM compound 45. Results are presented in Table IV and are expressed as the mean of % control (no compound). PI 3-kinase-γ (PI3K-γ) activity was determined with the PIProfiler™ assay, which measures the binding of the GRP1 pleckstrin homology (PH) domain to PIP3, the product of PI3K acting on its physiological substrate PIP2.

Ros = molecular target: T2, Ros (Homo sapiens, UniProt P08922); assay: kinase profiler, Ros; type: biochemical; conditions: 10 μM compound, 100 μM ATP, mean of % control
T2 construct: purchased Upstate Biotechnologies (kinase profiler service)
Experimental: as §2

AMPK = assay: kinase profiler, AMPK; type: biochemical, human; conditions: 10 μM compound, 100 μM ATP, mean of % control
Experimental: as §2

Aurora-A = molecular target: T3, Aurora-A (Homo sapiens, UniProt O14965); assay: kinase profiler, Aurora-A; type: biochemical; conditions: 10 μM compound, 100 μM ATP, mean of % control
T3 construct: purchased Upstate Biotechnologies (kinase profiler service)
Experimental: as §2

PAK2 = molecular target: T4, PAK2 (Homo sapiens, UniProt Q13177); assay: kinase profiler, PAK2; type: biochemical; conditions: 10 μM compound, 100 μM ATP, mean of % control
T4 construct: purchased Upstate Biotechnologies (kinase profiler service)
T4 sequence (Q13177 whole entry): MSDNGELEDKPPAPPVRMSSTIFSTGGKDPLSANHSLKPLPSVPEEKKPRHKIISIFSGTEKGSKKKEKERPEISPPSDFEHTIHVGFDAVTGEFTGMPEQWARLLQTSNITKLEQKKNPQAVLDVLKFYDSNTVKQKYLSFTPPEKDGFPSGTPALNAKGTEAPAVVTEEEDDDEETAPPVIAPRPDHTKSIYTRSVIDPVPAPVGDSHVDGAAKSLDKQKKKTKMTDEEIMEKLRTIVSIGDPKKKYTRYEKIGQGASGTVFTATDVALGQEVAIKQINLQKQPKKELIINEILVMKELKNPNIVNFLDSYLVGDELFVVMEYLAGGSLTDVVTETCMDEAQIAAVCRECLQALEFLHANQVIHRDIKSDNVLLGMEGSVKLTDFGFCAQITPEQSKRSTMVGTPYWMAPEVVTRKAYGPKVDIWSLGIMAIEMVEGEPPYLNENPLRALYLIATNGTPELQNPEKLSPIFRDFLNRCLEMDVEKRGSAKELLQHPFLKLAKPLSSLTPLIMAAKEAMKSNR
Experimental: as §2

[2] = test system: human non-small cell lung cancer cells (H460); assay: XTT cell proliferation assay, H460 cells, 48 h; type: cell-based; conditions: NCI-H460, 48 h, read-out: % Survival
Experimental: Selected compounds of Formula I were tested for anti-cancer activity in vitro using a human colon carcinoma cells (HT-29) and human non-small cell lung cancer cells (H460). The cells were maintained in α-MEM medium (Wisent, St-Bruno, Qc) supplemented with 10% FBS, and grown at 37° C. in an atmosphere of 5% CO2. Cells were transferred onto 150 mm tissue culture plates and grown until sub-confluency (70-80%) prior to their use.
The anti-cancer activity in vitro was evaluated by a cell proliferation assay based on the ability of live cells to reduce the tetrazolium salt XTT to orange coloured compounds of formazan (XTT cell proliferation kit II, Roche Applied Science, Montreal, QC).
Approximately 4×10^3 colon cancer cells (HT-29) or 2×10^3 non-small cell lung cancer cells (NCI-H460) in 100 μl of complete culture medium were plated onto 96-well microtiter plates and incubated overnight at 37° C. The medium was then removed by inverting the plate and patting on a sterile absorbent cloth. Fifty μl of medium containing the test compound at either 25 or 100 μM, were added to the wells containing cells and incubated at 37° C. in an atmosphere of 5% CO2 for 48 h. Following incubation, 25 μl of an XTT reaction mixture (XTT at a final concentration of 0.3 mg/ml) were added to each well and the plates were incubated for a further 4 h. The absorbance of each sample was then determined at a wavelength of 490 nm/650 nm as reference. Each compound was tested in duplicate and the results are reported as averages.

PDGFRα = molecular target: T5, PDGFRα (Homo sapiens, UniProt P16234); assay: kinase profiler, PDGFRα; type: biochemical; conditions: 10 μM compound, 100 μM ATP, mean of % control
T5 construct: purchased Upstate Biotechnologies (kinase profiler service)
Experimental: as §2

MAPK1 = molecular target: T6, MAPK1 (Homo sapiens, UniProt P27361); assay: kinase profiler, MAPK1; type: biochemical; conditions: 10 μM compound, 100 μM ATP, mean of % control
T6 construct: purchased Upstate Biotechnologies (kinase profiler service)
Experimental: as §2

PI3K-α = molecular target: T7, PI3K-α (Homo sapiens, UniProt P42336); assay: kinase profiler, PI3K-α; type: biochemical; conditions: 10 μM compound, mean of % control
T7 construct: purchased Upstate Biotechnologies (kinase profiler service)
T7 sequence (P42336 whole entry): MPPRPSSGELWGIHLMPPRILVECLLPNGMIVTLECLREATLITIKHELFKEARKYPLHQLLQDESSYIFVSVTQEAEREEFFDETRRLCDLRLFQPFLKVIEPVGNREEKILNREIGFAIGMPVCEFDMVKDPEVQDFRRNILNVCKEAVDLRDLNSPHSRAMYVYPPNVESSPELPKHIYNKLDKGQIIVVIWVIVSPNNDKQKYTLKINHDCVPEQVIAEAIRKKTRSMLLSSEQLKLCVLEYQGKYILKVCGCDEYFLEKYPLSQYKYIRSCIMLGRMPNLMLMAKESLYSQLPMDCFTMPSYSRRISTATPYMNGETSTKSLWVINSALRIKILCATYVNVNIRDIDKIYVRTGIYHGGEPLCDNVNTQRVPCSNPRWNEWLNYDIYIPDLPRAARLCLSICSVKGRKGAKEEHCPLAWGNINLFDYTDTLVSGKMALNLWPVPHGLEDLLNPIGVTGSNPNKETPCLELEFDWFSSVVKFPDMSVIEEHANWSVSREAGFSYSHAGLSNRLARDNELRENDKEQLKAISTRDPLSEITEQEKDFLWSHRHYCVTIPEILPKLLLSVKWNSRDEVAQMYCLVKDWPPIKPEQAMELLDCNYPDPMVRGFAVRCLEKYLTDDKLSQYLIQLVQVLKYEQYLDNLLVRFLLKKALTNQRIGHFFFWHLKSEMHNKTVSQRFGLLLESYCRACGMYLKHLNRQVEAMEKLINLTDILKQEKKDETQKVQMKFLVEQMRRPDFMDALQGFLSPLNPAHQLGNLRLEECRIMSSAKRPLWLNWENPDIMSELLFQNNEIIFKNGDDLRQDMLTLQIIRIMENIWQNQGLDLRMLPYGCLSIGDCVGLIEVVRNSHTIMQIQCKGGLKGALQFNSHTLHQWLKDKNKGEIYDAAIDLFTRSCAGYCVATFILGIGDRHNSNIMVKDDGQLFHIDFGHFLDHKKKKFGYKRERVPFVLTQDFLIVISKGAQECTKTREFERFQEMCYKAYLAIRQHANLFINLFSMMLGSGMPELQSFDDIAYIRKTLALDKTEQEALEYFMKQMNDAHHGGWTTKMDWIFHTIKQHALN
T7 sequence (P27986 whole entry partner): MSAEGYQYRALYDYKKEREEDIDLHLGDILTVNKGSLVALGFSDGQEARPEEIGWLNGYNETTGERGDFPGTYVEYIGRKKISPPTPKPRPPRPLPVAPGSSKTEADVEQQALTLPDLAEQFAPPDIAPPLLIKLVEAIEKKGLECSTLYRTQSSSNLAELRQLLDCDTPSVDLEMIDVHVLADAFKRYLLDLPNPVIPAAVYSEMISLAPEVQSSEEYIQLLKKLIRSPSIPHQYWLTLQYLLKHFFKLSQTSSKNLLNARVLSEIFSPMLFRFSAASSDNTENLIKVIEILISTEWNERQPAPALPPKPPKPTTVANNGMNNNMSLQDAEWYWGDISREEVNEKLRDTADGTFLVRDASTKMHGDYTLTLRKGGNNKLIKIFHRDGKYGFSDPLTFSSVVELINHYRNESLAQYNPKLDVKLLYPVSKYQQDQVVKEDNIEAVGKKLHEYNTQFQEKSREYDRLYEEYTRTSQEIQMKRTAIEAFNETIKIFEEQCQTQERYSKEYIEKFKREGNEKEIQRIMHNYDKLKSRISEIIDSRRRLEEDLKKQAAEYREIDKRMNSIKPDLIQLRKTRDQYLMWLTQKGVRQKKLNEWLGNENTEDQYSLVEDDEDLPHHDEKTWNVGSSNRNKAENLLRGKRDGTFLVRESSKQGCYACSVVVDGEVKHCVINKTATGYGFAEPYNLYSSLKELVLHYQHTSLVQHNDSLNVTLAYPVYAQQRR

IGF-1R = molecular target: T8, IGF-1R (Homo sapiens, UniProt P08069); assay: kinase profiler, IGF-1R; type: biochemical; conditions: 10 μM compound, 100 μM ATP, mean of % control
T8 construct: purchased Upstate Biotechnologies (kinase profiler service)
Experimental: as §2

ErbB4 = molecular target: T9, ErbB4 (Homo sapiens, UniProt Q15303); assay: kinase profiler, ErbB4; type: biochemical; conditions: 10 μM compound, 100 μM ATP, mean of % control
T9 construct: purchased Upstate Biotechnologies (kinase profiler service)
Experimental: as §2

CaMKIV = molecular target: T10, CaMKIV (Homo sapiens, UniProt Q16566); assay: kinase profiler, CaMKIV; type: biochemical; conditions: 10 μM compound, 100 μM ATP, mean of % control
T10 construct: purchased Upstate Biotechnologies (kinase profiler service)
Experimental: as §2

JNK1α1 = molecular target: T11, JNK1α1 (Homo sapiens, UniProt P45983); assay: kinase profiler, JNK1α1; type: biochemical; conditions: 10 μM compound, 100 μM ATP, mean of % control
T11 construct: purchased Upstate Biotechnologies (kinase profiler service)
Experimental: as §2

Plk3 = molecular target: T12, Plk3 (Homo sapiens, UniProt Q9H4B4); assay: kinase profiler, Plk3; type: biochemical; conditions: 10 μM compound, 100 μM ATP, mean of % control
T12 construct: purchased Upstate Biotechnologies (kinase profiler service)
T12 sequence (Q9H4B4 whole entry): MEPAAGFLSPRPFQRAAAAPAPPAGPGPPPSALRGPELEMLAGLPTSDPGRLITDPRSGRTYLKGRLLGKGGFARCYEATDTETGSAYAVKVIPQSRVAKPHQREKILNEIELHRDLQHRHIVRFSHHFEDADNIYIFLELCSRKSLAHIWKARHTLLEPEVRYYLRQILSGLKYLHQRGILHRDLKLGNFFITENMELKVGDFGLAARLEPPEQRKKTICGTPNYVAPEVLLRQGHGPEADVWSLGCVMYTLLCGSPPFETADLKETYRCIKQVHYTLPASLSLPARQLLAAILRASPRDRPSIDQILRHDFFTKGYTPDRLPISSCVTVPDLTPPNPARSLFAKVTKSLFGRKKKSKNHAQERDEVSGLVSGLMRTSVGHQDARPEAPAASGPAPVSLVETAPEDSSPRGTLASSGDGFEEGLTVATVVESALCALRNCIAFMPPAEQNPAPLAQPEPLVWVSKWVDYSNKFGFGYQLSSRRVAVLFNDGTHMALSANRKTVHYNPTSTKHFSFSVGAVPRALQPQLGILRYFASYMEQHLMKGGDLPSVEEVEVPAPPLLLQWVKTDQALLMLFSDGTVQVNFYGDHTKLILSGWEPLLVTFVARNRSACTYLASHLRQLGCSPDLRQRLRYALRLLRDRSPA
Experimental: as §2

MINK = molecular target: T13, MINK (Homo sapiens, UniProt Q8N4C8); assay: kinase profiler, MINK; type: biochemical; conditions: 10 μM compound, 100 μM ATP, mean of % control
T13 construct: purchased Upstate Biotechnologies (kinase profiler service)
Experimental: as §2

JNK3 = molecular target: T14, JNK3 (Homo sapiens, UniProt P53779); assay: kinase profiler, JNK3; type: biochemical; conditions: 10 μM compound, 100 μM ATP, mean of % control
T14 construct: purchased Upstate Biotechnologies (kinase profiler service)
Experimental: as §2

PKCμ = molecular target: T15, PKCμ (Homo sapiens, UniProt Q15139); assay: kinase profiler, PKCμ; type: biochemical; conditions: 10 μM compound, 100 μM ATP, mean of % control
T15 construct: purchased Upstate Biotechnologies (kinase profiler service)
Experimental: as §2

MEK1 = molecular target: T16, MEK1 (Homo sapiens, UniProt Q02750); assay: kinase profiler, MEK1; type: biochemical; conditions: 10 μM compound, 100 μM ATP, mean of % control
T16 construct: purchased Upstate Biotechnologies (kinase profiler service)
Experimental: as §2

Met = molecular target: T17, Met (Homo sapiens, UniProt P08581); assay: kinase profiler, Met; type: biochemical; conditions: 10 μM compound, 100 μM ATP, mean of % control
T17 construct: purchased Upstate Biotechnologies (kinase profiler service)
Experimental: as §2

MAPK2 = molecular target: T18, MAPK2 (Homo sapiens, UniProt P28482); assay: kinase profiler, MAPK2; type: biochemical; conditions: 10 μM compound, 100 μM ATP, mean of % control
T18 construct: purchased Upstate Biotechnologies (kinase profiler service)
Experimental: as §2

[3] = test system: MDA-MB-231 breast adenocarcinoma cells; assay: morphological changes (vacuoles), MDA-MB-231; type: cell-based, human; conditions: MDA-MB-231 cells, treatment for 24 hours
Excerpt: as §1

PDK1 = molecular target: T19, PDK1 (Homo sapiens, UniProt O15530); assay: kinase profiler, PDK1; type: biochemical; conditions: 10 μM compound, 100 μM ATP, mean of % control
T19 construct: purchased Upstate Biotechnologies (kinase profiler service)
Experimental: as §2

p70S6K = assay: kinase profiler, p70S6K; type: biochemical, human; conditions: 10 μM compound, 100 μM ATP, mean of % control
Experimental: as §2

EGFR = molecular target: T20, EGFR (Homo sapiens, UniProt P00533); assay: kinase profiler, EGFR; type: biochemical; conditions: 10 μM compound, 100 μM ATP, mean of % control
T20 construct: purchased Upstate Biotechnologies (kinase profiler service)
Experimental: as §2

CK2 = molecular target: T21, CK2 (Homo sapiens, UniProt P68400); assay: kinase profiler, CK2; type: biochemical; conditions: 10 μM compound, 100 μM ATP, mean of % control
T21 construct: purchased Upstate Biotechnologies (kinase profiler service)
T21 sequence (P68400 whole entry): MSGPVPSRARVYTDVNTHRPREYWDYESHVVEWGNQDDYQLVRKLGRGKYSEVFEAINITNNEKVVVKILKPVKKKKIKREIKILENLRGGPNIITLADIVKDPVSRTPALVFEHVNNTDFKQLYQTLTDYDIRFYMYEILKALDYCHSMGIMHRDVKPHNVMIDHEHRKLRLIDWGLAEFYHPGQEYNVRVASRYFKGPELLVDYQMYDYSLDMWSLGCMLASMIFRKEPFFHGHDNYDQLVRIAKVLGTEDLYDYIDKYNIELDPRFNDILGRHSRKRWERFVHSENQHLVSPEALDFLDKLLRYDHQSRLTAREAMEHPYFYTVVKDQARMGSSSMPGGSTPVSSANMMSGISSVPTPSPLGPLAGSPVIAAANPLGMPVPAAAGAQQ
T21 sequence (P67870 whole entry partner): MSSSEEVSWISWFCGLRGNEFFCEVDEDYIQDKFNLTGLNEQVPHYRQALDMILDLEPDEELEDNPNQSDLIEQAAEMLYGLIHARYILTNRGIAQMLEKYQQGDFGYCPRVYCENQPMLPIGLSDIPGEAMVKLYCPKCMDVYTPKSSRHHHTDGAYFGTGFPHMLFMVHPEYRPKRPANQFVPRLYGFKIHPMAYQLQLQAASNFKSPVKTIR
Experimental: as §2

Q: How did the formation of vacuoles [1] turn out when `Brc1ccc2[nH]cc(-c3nc4c5ccccc5c5ccccc5c4[nH]3)c2c1` [Compound 45] was run?
A: formation of large vacuoles within the cytoplasm

Q: What about the GI50 (HT-29 colon cancer cells) of the same compound?
A: 2600 nM

Q: What about the activity at 10 µM (Abl) of the same compound?
A: 107%

Q: And the activity at 10 µM (Ros)?
A: 107%

Q: What about the “% activity” value (AMPK) of the same compound?
A: 100%

Q: What about the activity at 10 µM (Aurora-A) of the same compound?
A: 54%

Q: And the activity at 10 µM (PAK2)?
A: 89%

Q: What about the viability at 25 µM [2] of the same compound?
A: 96%

Q: And the viability at 100 µM [2]?
A: 32.7%

Q: What about the activity at 10 µM (PDGFRα) of the same compound?
A: 117%

Q: And the activity at 10 µM (MAPK1)?
A: 85%

Q: And the activity at 10 µM (PI3K-α)?
A: 30%

Q: What about the activity at 10 µM (IGF-1R) of the same compound?
A: 80%

Q: And the activity at 10 µM (ErbB4)?
A: 73%

Q: And the activity at 10 µM (CaMKIV)?
A: 98%

Q: What about the activity at 10 µM (JNK1α1) of the same compound?
A: 85%

Q: What about the activity at 10 µM (Plk3) of the same compound?
A: 132%

Q: And the activity at 10 µM (MINK)?
A: 91%

Q: And the activity at 10 µM (JNK3)?
A: 121%

Q: What about the activity at 10 µM (PKCμ) of the same compound?
A: 90%

Q: What about the activity at 10 µM (MEK1) of the same compound?
A: 88%

Q: What about the activity at 10 µM (Met) of the same compound?
A: 129%

Q: And the activity at 10 µM (MAPK2)?
A: 99%

Q: And the formation of vacuoles [3]?
A: formation of large vacuoles within the cytoplasm

Q: And the activity at 10 µM (PDK1)?
A: 106%

Q: And the “% activity” value (p70S6K)?
A: 64%

Q: And the activity at 10 µM (EGFR)?
A: 105%

Q: And the activity at 10 µM (CK2)?
A: 91%

Source: US10080739B2, “Aryl imidazoles and their use as anti-cancer agents” (Aptose Biosciences Inc., priority 2003, dated 2018)
